# Data taken from ChEMBL document CHEMBL6114949, “Synthesis and physiological effects of new 4-aminophenol derivatives as paracetamol analogues” (Bioorg Med Chem Lett, 2025).
# Activity calls are given as the source filed them. The rule behind the calls is not given here.
# What was measured:
# [1] = Hepatotoxicity in zymosan-induced rat arthritis model assessed as disruption of hepatocyte membrane at 150 mg/kg, ig administered once daily for 7 days by hematoxylin-eosin staining based histological analysis; format: toxicity, organism-based, Liver; settings: in vivo, po, 168 h, time 7 day
# [2] = Hepatotoxicity in zymosan-induced rat arthritis model assessed as effect on beam structure of liver at 150 mg/kg, ig administered once daily for 7 days by hematoxylin-eosin staining based histological analysis; format: toxicity, organism-based; settings: in vivo, po, 168 h, time 7 day
# [3] = Hepatotoxicity in zymosan-induced rat arthritis model assessed as change in shape of liver central veins at 150 mg/kg, ig administered once daily for 7 days by hematoxylin-eosin staining based histological analysis; format: toxicity, organism-based; settings: in vivo, po, 168 h, time 7 day
# [4] = Hepatotoxicity in zymosan-induced rat arthritis model assessed as change in hepatocyte karyoplasm at 150 mg/kg, ig administered once daily for 7 days by hematoxylin-eosin staining based histological analysis; format: toxicity, organism-based, Liver; settings: in vivo, po, 168 h, time 7 day
# [5] = Hepatotoxicity in zymosan-induced rat arthritis model assessed as change in hepatocyte nucleus size at 150 mg/kg, ig administered once daily for 7 days by hematoxylin-eosin staining based histological analysis; format: toxicity, organism-based, Liver; settings: in vivo, po, 168 h, time 7 day
# [6] = Hepatotoxicity in zymosan-induced rat arthritis model assessed as effect on sinusoids elongation at 150 mg/kg, ig administered once daily for 7 days by hematoxylin-eosin staining based histological analysis; format: toxicity, organism-based, Liver; settings: in vivo, po, 168 h, time 7 day
# [7] = Hepatotoxicity in zymosan-induced rat arthritis model assessed as effect on sinusoids arrangement at 150 mg/kg, ig administered once daily for 7 days by hematoxylin-eosin staining based histological analysis; format: toxicity, organism-based, Liver; settings: in vivo, po, 168 h, time 7 day
# [8] = Hepatotoxicity in zymosan-induced rat arthritis model assessed as change in hepatocyte shape at 150 mg/kg, ig administered once daily for 7 days by hematoxylin-eosin staining based histological analysis; format: toxicity, organism-based, Liver; settings: in vivo, po, 168 h, time 7 day
# [9] = Hepatotoxicity in zymosan-induced rat arthritis model assessed as effect on general architecture of liver at 150 mg/kg, ig administered once daily for 7 days by hematoxylin-eosin staining based histological analysis; format: toxicity, organism-based; settings: in vivo, po, 168 h, time 7 day
# [10] = Hepatotoxicity in zymosan-induced rat arthritis model assessed as appearance of vacuoles in hepatocyte cytoplasm at 150 mg/kg, ig administered once daily for 7 days by hematoxylin-eosin staining based histological analysis; format: toxicity, organism-based, Liver; settings: in vivo, po, 168 h, time 7 day
# Rattus norvegicus [11] = test: Antipyretic activity against LPS-induced polyphasic febrile response in rats assessed as suppression of rise in core body temperature at 150 mg/kg, po treated 40 mins prior to LPS addition and measured after 160 mins relative to control; format: functional; settings: time 200 min, 3.333 h
# [12] = Hepatotoxicity in zymosan-induced rat arthritis model assessed as change in shape of liver portal tracts at 150 mg/kg, ig administered once daily for 7 days by hematoxylin-eosin staining based histological analysis; format: toxicity, organism-based; settings: in vivo, po, 168 h, time 7 day
# Rattus norvegicus [13] = test: Antinociceptive activity in zymosan-induced rat model of thermal nociceptive hypersensitivity assessed as nociceptive response inhibition at 150 mg/kg, ig administered once daily for 7 days and measured 1 hr post-zymosan challenge on day 7 by hot-plate test (reference value: -42.4%); format: functional; settings: po, 168 h, time 7 day
# [14] = Hepatotoxicity in zymosan-induced rat arthritis model assessed as change in hepatocyte cytoplasmic appearance at 150 mg/kg, ig administered once daily for 7 days by hematoxylin-eosin staining based histological analysis; format: toxicity, organism-based, Liver; settings: in vivo, po, 168 h, time 7 day
# Rattus norvegicus [15] = test: Antinociceptive activity in zymosan-induced rat arthritis model assessed as nociceptive response inhibition at 150 mg/kg, ig administered once daily for 7 days and measured 1 hr post-zymosan challenge on day 7 by Randall-Selitto test (reference value: -34.6%); format: functional; settings: po, 168 h, time 7 day
# Rattus norvegicus [16] = test: Antipyretic activity against LPS-induced polyphasic febrile response in rats assessed as return of body temperature to background value at 150 mg/kg, po treated 40 mins prior to LPS addition and measured after 235 mins; format: functional, organism-based; settings: time 275.0 min
# Rattus norvegicus [17] = test: Antipyretic activity against LPS-induced polyphasic febrile response in rats assessed as change in core body temperature at 150 mg/kg, po treated 40 mins prior to LPS addition and measured after 160 mins during phase 1 (reference value: 0.85 deg C); format: functional; settings: time 200 min, 3.333 h
# Rattus norvegicus [18] = test: Antipyretic activity against LPS-induced polyphasic febrile response in rats assessed as return of body temperature to background value at 80 mg/kg, po treated 40 mins prior to LPS addition and measured after 245 mins; format: functional, organism-based; settings: time 285.0 min
# Rattus norvegicus [19] = test: Antinociceptive activity in zymosan-induced rat arthritis model assessed as nociceptive response inhibition at 80 mg/kg, ig administered once daily for 7 days and measured 1 hr post-zymosan challenge on day 7 by Randall-Selitto test (reference value: -34.6%); format: functional; settings: po, 168 h, time 7 day
# Rattus norvegicus [20] = test: Antipyretic activity against LPS-induced polyphasic febrile response in rats assessed as change in core body temperature at 80 mg/kg, po treated 40 mins prior to LPS addition and measured after 10 mins during phase 1 (reference value: 0.85 deg C); format: functional, organism-based; settings: time 50.0 min
# Rattus norvegicus [21] = test: Antinociceptive activity in zymosan-induced rat model of thermal nociceptive hypersensitivity assessed as nociceptive response inhibition at 80 mg/kg, ig administered once daily for 7 days and measured 1 hr post-zymosan challenge on day 7 by hot-plate test (reference value: -42.4%); format: functional; settings: po, 168 h, time 7 day
smiles,measurement,setting,value
CCCCCCCC(=O)Nc1ccc(OCC(=O)O)cc1,Activity,[1],Non-toxic
same,Activity,[2],Non-toxic
same,Activity,[3],Non-toxic
same,Activity,[4],Non-toxic
same,Activity,[5],Non-toxic
same,Activity,[6],Non-toxic
same,Activity,[7],Non-toxic
same,Activity,[8],Non-toxic
same,Activity,[9],Non-toxic
same,Activity,[10],Non-toxic
same,fold change (FC),Rattus norvegicus [11],3
same,Activity,[12],Non-toxic
same,inhibition in vivo at 150 mg/kg,Rattus norvegicus [13],8.5%
same,Activity,[14],Non-toxic
same,inhibition in vivo at 150 mg/kg,Rattus norvegicus [15],21.3%
same,Activity,Rattus norvegicus [16],Active
same,T,Rattus norvegicus [17],0.28 °C
CC(=O)Nc1ccc(O)cc1 [ACETAMINOPHEN],Activity,Rattus norvegicus [18],Active
same,inhibition in vivo at 80 mg/kg,Rattus norvegicus [19],28.5%
same,ΔTm,Rattus norvegicus [20],0.34 °C
same,inhibition in vivo at 80 mg/kg,Rattus norvegicus [21],53%
